One assay deals with LNCaP/AR cells. Nature of the assay: Inhibition of the proliferation of LNCap/AR cells (CCK-8). Conditions: read-out: LNCap/AR IC50. In kind it is cell-based. The essentials: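 Proliferation was read by CCK-8 (OD 450 nm, 1 h) after six days of compound exposure. Cells were seeded at 1000 per well overnight, then dosed in duplicate over nine 3-fold steps with a top final concentration of 10 μM in 0.1% DMSO; IC50 was fitted from inhibition curves.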

Another assay relates to 22RV1 cells. Nature of the assay: Inhibition of the proliferation of drug-resistant prostate cancer cell 22RV1 (CCK-8). The assay is classed as cell-based. Conditions: 22RV1 cells (enzalutamide-resistant), same method. In outline:
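22RV1 cells, 1000/well in RPMI1640 with 10% FBS, treated in duplicate with 9-point 3-fold dilutions from 10 μM (0.1% DMSO final). After 6 days at 37 °C, CCK-8 added for 1 h and OD450 read. IC50 from dose-response inhibition fit.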

The mark [1] stands for this setting: 144 h, LNCaP/AR cells, 6 days culture, CCK-8.
The mark [2] stands for this setting: LNCaP/AR cells, 6 days culture, CCK-8.

Read-outs that look alike come from different tables or passages of the source.

With `Cc1ccc(-c2c(C)noc2C)cc1N(CCCOC1CN(c2ccc3c(c2)CN(C2CCC(=O)NC2=O)C3=O)C1)c1ccc(C2(C#N)CC2)cc1` (stereo not shown) [Compound 122, 1-(4-((5-(3,5-dimethylisoxazol-4-yl)-2-methylphenyl)(3-((1-(2-(2,6-dioxopiperidin-3-yl)-1-oxoisoindolin-5-yl)azetidin-3-yl)oxy)propyl)amino)phenyl)cyclopropane-1-nitrile], the IC50 in the assay with LNCaP/AR cells (setting [1]) and with 22RV1 cells (Homo sapiens) was less than 100 nM in each case.

Regarding `Cc1ccc(-c2c(C)noc2C)cc1N(CC1CC2(C1)CN(c1cc3c(cc1F)C(=O)N(C1CCC(=O)NC1=O)C3)C2)c1ccc(C2(C#N)CC2)cc1` (stereo not shown) [Compound 125, 1-(4-((5-(3,5-dimethylisoxazol-4-yl)-2-methylphenyl)((2-(2-(2-,2,6-dioxopiperidin-3-yl)-6-fluoro-1-oxoisoindolin-5-yl)-2-azaspiro[3.3]heptan-6-yl)methyl)amino)phenyl)cyclopropane-1-carbonitrile], the IC50 in the assay with LNCaP/AR cells (setting [1]) and in the assay on 22RV1 cells (Homo sapiens) was 501 to 2000 nM throughout.

`Cc1ccc(-c2c(C)noc2C)cc1N(CC1CC2(C1)CN(c1cc3c(cc1F)CN(C1CCC(=O)NC1=O)C3=O)C2)c1ccc(C2(C#N)CC2)cc1` (stereo not shown) [Compound 126, 1-(4-((5-(3,5-dimethylisoxazol-4-yl)-2-methylphenyl)((2-(2-(2-,2,6-dioxopiperidin-3-yl)-6-fluoro-3-oxoisoindolin-5-yl)-2-azaspiro[3.3]heptan-6-yl)methyl)amino)phenyl)cyclopropane-1-carbonitrile]: the IC50 in the assay with LNCaP/AR cells (setting [2]) was 501 to 2000 nM; in the assay on 22RV1 cells it was more than 2000 nM.

As for `Cc1ccc(-c2c(C)noc2C)cc1N(CCC1CN(c2cc3c(cc2F)C(=O)N(C2CCC(=O)NC2=O)C3=O)C1)c1ccc(C2(C#N)CC2)cc1` (stereo not shown) [Compound 130, 1-(4-((5-(3,5-dimethylisoxazol-4-yl)-2-methylphenyl)(2-(1-(2-(2,6-dioxopiperidin-3-yl)-6-fluoro-1,3-dioxoisoindolin-5-yl)azetidin-3-yl)ethyl)amino)phenyl)cyclopropane-1-carbonitrile], the IC50 is 101 to 500 nM in the assay on LNCaP/AR cells (setting [2]) and less than 100 nM with 22RV1 cells.

For the compound `Cc1ccc(-c2c(C)noc2C)cc1N(C[C@H]1CC[C@H](CNc2ccc3c(c2)C(=O)N(C2CCC(=O)NC2=O)C3=O)CC1)c1ccc(C#N)c(Cl)c1` (stereo partly shown) [Compound 132, 2-Chloro-4-((5-(3,5-dimethylisoxazol-4-yl)-2-methylphenyl)(((1r,4r)-4-(((2-(2,6-dioxopiperidin-3-yl)-1,3-dioxoisoindolin-5-yl)amino)methyl)cyclohexyl)methyl)amino)benzonitrile], the IC50 in the assay with LNCaP/AR cells (LNCaP/AR, 144 h) is more than 2000 nM; in the assay on 22RV1 cells (Homo sapiens), 101 to 500 nM.

Take `Cc1ccc(-c2c(C)noc2C)cc1N(CC1CCC(CNc2ccc3c(c2)CN(C2CCC(=O)NC2=O)C3=O)CC1)c1ccc(C#N)c(Cl)c1` (stereo not shown) [Compound 133, 2-Chloro-4-((5-(3,5-dimethylisoxazol-4-yl)-2-methylphenyl)((1r,4r)-4-((2-(2,6-dioxopiperidin-3-yl)-1-oxoisoindolin-5-yl)amino)methyl)cyclohexyl)methyl)amino)benzonitrile]: the IC50 is less than 100 nM in the assay with LNCaP/AR cells (LNCaP/AR, 144 h) and less than 100 nM in the assay on 22RV1 cells (Homo sapiens).

As to `Cc1ccc(-c2c(C)noc2C)cc1N(CC1CCC(CNc2ccc3c(c2)C(=O)N(C2CCC(=O)NC2=O)C3)CC1)c1ccc(C#N)c(Cl)c1` (stereo not shown) [Compound 134, 2-Chloro-4-((5-(3,5-dimethylisoxazol-4-yl)-2-methylphenyl)((1r,4r)-4-((2-(2,6-dioxopiperidin-3-yl)-3-oxoisoindolin-5-yl)amino)methyl)cyclohexyl)methyl)amino)benzonitrile], the IC50 with LNCaP/AR cells (LNCaP/AR, 144 h) was 101 to 500 nM; in the assay with 22RV1 cells (Homo sapiens), less than 100 nM.

Consider `Cc1ccc(-c2c(C)noc2C)cc1N(C[C@H]1CC[C@H](CNc2cc3c(cc2F)CN(C2CCC(=O)NC2=O)C3=O)CC1)c1ccc(C#N)c(Cl)c1` (stereo partly shown) [Compound 136], for which the IC50 lay in the range of 501 to 2000 nM with LNCaP/AR cells (LNCaP/AR, 144 h) and 101 to 500 nM in the assay with 22RV1 cells (Homo sapiens).

Regarding `Cc1ccc(-c2c(C)noc2C)cc1N(CC1(COC2CN(c3cc4c(cc3F)C(=O)N(C3CCC(=O)NC3=O)C4=O)C2)CC1)c1ccc(C2(C#N)CC2)cc1` (stereo not shown) [Compound 138, 1-(4-((5-(3,5-dimethylisoxazol-4-yl)-2-methylphenyl)((1-(((1-(2-(2,6-dioxopiperidin-3-yl)-6-fluoro-1,3-dioxoisoindolin-5-yl)azetidin-3-yl)oxy)methyl)cyclopropyl)methyl)amino)phenyl)cyclopropane-1-nitrile], the IC50 in the assay on LNCaP/AR cells (setting [1]) is 101 to 500 nM; in the assay on 22RV1 cells (Homo sapiens), more than 2000 nM.

Take `Cc1ccc(-c2c(C)noc2C)cc1N(CC1CN(C2CCN(c3cc4c(cc3F)C(=O)N(C3CCC(=O)NC3=O)C4=O)CC2)C1)c1ccc(C2(C#N)CC2)cc1` (stereo not shown) [Compound 139, 1-(4-((5-(3,5-dimethylisoxazol-4-yl)-2-methylphenyl)((1-(1-(2-(2,6-dioxopiperidin-3-yl)-6-fluoro-1,3-dioxoisoindolin-5-yl)piperidin-4-yl)azetidin-3-yl)methyl)amino)phenyl)cyclopropane-1-carbonitrile]: the IC50 in the assay with LNCaP/AR cells (setting [1]) and in the assay on 22RV1 cells (Homo sapiens) was more than 2000 nM throughout.

Take `Cc1ccc(-c2c(C)noc2C)cc1N(CCCCCOCC(=O)N[C@H](C(=O)N1C[C@H](O)C[C@H]1C(=O)N[C@@H](C)c1ccc(-c2scnc2C)cc1)C(C)(C)C)c1ccc(C2(C#N)CC2)cc1` [Compound 143]: the IC50 was 101 to 500 nM in the assay on LNCaP/AR cells (setting [1]) and less than 100 nM in the assay with 22RV1 cells (Homo sapiens).

As to `Cc1ccc(-c2c(C)noc2C)cc1N(CC1CN(C2CCN(c3ccc4c(c3)C(=O)N(C3CCC(=O)NC3=O)C4=O)CC2)C1)c1ccc(C2(C#N)CC2)cc1` (stereo not shown) [Compound 152], the IC50 in the assay on LNCaP/AR cells (LNCaP/AR, 144 h) was more than 2000 nM; with 22RV1 cells (Homo sapiens), 501 to 2000 nM.

As for `Cc1ccc(-c2c(C)noc2C)cc1N(CC1CN(C2CN(c3cc4c(cc3F)C(=O)N(C3CCC(=O)NC3=O)C4=O)C2)C1)c1ccc(C2(C#N)CC2)cc1` (stereo not shown) [Compound 153], the IC50 with LNCaP/AR cells (setting [2]) and in the assay on 22RV1 cells was less than 100 nM each time.

Regarding `Cc1ccc(-c2c(C)noc2C)cc1N(CC1CC2(CCN(c3cc4c(cc3F)C(=O)N(C3CCC(=O)NC3=O)C4=O)CC2)C1)c1ccc(C2(C#N)CC2)cc1` (stereo not shown) [Compound 154], the values for the IC50 in the assay with LNCaP/AR cells (setting [1]) and in the assay on 22RV1 cells (Homo sapiens) were 501 to 2000 nM and 101 to 500 nM, respectively.

Regarding `Cc1ccc(-c2c(C)noc2C)cc1N(CC1CN(c2cc3c(cc2F)CN(C2CCC(=O)NC2=O)C3=O)C1)c1ccc(C2(C#N)CC2)cc1` (stereo not shown) [Compound 155], the IC50 with LNCaP/AR cells (setting [1]) and in the assay on 22RV1 cells (Homo sapiens) was more than 2000 nM in each case.

`Cc1ccc(-c2c(C)noc2C)cc1N(CC1CN(c2cc3c(cc2F)C(=O)N(C2CCC(=O)NC2=O)C3)C1)c1ccc(C2(C#N)CC2)cc1` (stereo not shown) [Compound 156]: the IC50 in the assay with LNCaP/AR cells (setting [1]) was 101 to 500 nM; with 22RV1 cells (Homo sapiens), 501 to 2000 nM.

`Cc1ccc(-c2c(C)noc2C)cc1N(CC1CN(C2CN(c3cc4c(cc3F)C(=O)N(C3CCC(=O)NC3=O)C4)C2)C1)c1ccc(C2(C#N)CC2)cc1` (stereo not shown) [Compound 158]: the IC50 in the assay with LNCaP/AR cells (setting [2]) and in the assay on 22RV1 cells was less than 100 nM in each case.

Turning to `Cc1ccc(-c2c(C)noc2C)cc1N(CC1CCN(C2CN(c3cc4c(cc3F)C(=O)N(C3CCC(=O)NC3=O)C4)C2)CC1)c1ccc(C2(C#N)CC2)cc1` (stereo not shown) [Compound 160], the IC50 was more than 2000 nM in the assay with LNCaP/AR cells (setting [1]) and less than 100 nM in the assay on 22RV1 cells (Homo sapiens).

In the case of `Cc1ccc(-c2c(C)noc2C)cc1N(CC1CCC(Nc2cc3c(cc2F)C(=O)N(C2CCC(=O)NC2=O)C3=O)CC1)c1ccc(C2(C#N)CC2)cc1` (stereo not shown) [Compound 161, 1-(4-((5-(3,5-dimethylisoxazol-4-yl)-2-methylphenyl)(((1s,4s)-4-((2-(2,6-dioxopiperidin-3-yl)-6-fluoro-1,3-dicarbonylisoindolin-5-yl)amino)cyclohexyl)methyl)amino)phenyl) phenylcyclopropanecarbonitrile], the IC50 in the assay with LNCaP/AR cells (setting [1]) and in the assay with 22RV1 cells (Homo sapiens) was more than 2000 nM in each case.

As for `Cc1ccc(-c2c(C)noc2C)cc1N(CC1CCC(Nc2cc3c(cc2F)CN(C2CCC(=O)NC2=O)C3=O)CC1)c1ccc(C2(C#N)CC2)cc1` (stereo not shown) [Compound 162, 1-(4-((5-(3,5-Dimethylisoxazol-4-yl)-2-methylphenyl)(((1s,4s)-4-((2-(2,6-dioxopiperidin-3)-6-fluoro-3-isoindolinone-5-yl)amino)cyclohexyl)methyl)amino)phenyl)phenylcyclopropanecarbonitrile], the IC50 was 101 to 500 nM with LNCaP/AR cells (setting [2]) and more than 2000 nM with 22RV1 cells.

Take `Cc1ccc(-c2c(C)noc2C)cc1N(CC1CCC(Nc2cc3c(cc2F)C(=O)N(C2CCC(=O)NC2=O)C3)CC1)c1ccc(C2(C#N)CC2)cc1` (stereo not shown) [Compound 163, 1-(4-((5-(3,5-Dimethylisoxazol-4-yl)-2-methylphenyl)(((1s,4s)-4-((2-(2,6-dioxopiperidin-3)-6-fluoro-1-isoindolinone-5-yl)amino)cyclohexyl)methyl)amino)phenyl)phenylcyclopropanecarbonitrile]: the IC50 in the assay on LNCaP/AR cells (setting [2]) was less than 100 nM; with 22RV1 cells it was more than 2000 nM.

As to `Cc1ccc(-c2c(C)noc2C)cc1N(CCCCNc1cc2c(cc1F)C(=O)N(C1CCC(=O)NC1=O)C2=O)c1ccc(C#N)c(Cl)c1` (stereo not shown) [Compound 164, 2-Chloro-4-((5-(3,5-dimethylisoxazol-4-yl)-2-methylphenyl)(4-((2-(2,6-dioxopiperidin-3)-6-fluoro-1,3-dioxyisoindolin-5-yl)amino)butyl)amino)benzonitrile], the IC50 in the assay with LNCaP/AR cells (LNCaP/AR, 144 h) was 501 to 2000 nM; with 22RV1 cells (Homo sapiens), more than 2000 nM.

As to `Cc1ccc(-c2c(C)noc2C)cc1N(CCCCNc1cc2c(cc1F)CN(C1CCC(=O)NC1=O)C2=O)c1ccc(C#N)c(Cl)c1` (stereo not shown) [Compound 166, 2-Chloro-4-((5-(3,5-dimethylisoxazol-4-yl)-2-methylphenyl)(4-((2-(2,6-dioxopiperidin-3)-6-fluoro-3-isoindolinone-5-yl)amino)butyl)amino)benzonitrile], the IC50 is 101 to 500 nM in the assay on LNCaP/AR cells (LNCaP/AR, 144 h) and less than 100 nM in the assay on 22RV1 cells (Homo sapiens).

The values are drawn from patent US20220257774A1, “AROMATIC AMINE AR AHD BET TARGETING PROTEIN DEGRADATION CHIMERA COMPOUND AND USE” (HINOVA PHARMACEUTICALS INC., priority 2019, published 2022).
